Reference: paper PMC10349806 (Nature Communications, 2023)
“And” between values parts separate entries of the source, which are not always exact repeats. Identical values can stand only once.

Target: PfCRT^Dd2 (Plasmodium falciparum, UniProt Q9N623, A220S/I356T/K76T/M74I/N326S/N75E/Q271E/R371I)
Assay: Drug uptake assay, X. laevis oocytes expressing PfCRT^Dd2
Format: cell-based
Settings: for v-1 pH 4.5 / v-1 pH 5.0 / v-1 pH 5.5 / v-1 pH 6.0: Lineweaver-Burk
Experimental: Oocytes were obtained as described previously. Briefly, adult (>2 years old) female X. laevis frogs (NASCO) were anesthetized in a cooled solution of ethyl 3-amino benzoate methanesulfonate (0.1%, w/v), followed by a surgical removal of parts of the ovary. The ovary lobes were carefully dissected and small pieces of oocytes were incubated in Ca^2+-free ND96 buffer (96 mM NaCl, 2 mM KCl, 1 mM MgCl2 buffered with 5 mM HEPES/NaOH, pH 7.5) supplemented with collagenase D (0.1%, w/v; Roche), BSA (0.5%, w/v), and 9 mm Na2HPO4 at 18 °C for 14-16 h while gentle shaking. After incubation, the oocytes were carefully washed several times with ND96 buffer (96 mM NaCl, 2 mM KCl, 1.8 mM CaCl2, 1 mM MgCl2 buffered with 5 mM HEPES/NaOH, pH 7.5) supplemented with 100 mg l^−1 gentamycin). Defolliculated and healthy-looking stage V-VI oocytes were manually selected for RNA microinjection. The RNA was generated as following: The codon-optimized sequences of PfCRT variants were cloned into the pSP64T expression vector. After vector linearization using the restriction endonucleases BamHI or SalI (New England Biolabs), transcription was performed using the in vitro SP6 mMessage mMachine Kit (Ambion)[34]. The obtained RNA was kept at −80 °C and diluted with nuclease-free water to a concentration of 0.6 μg μl^−1. Precision-bore glass capillary tubes (3.5-inch glass capillaries; Drummond Scientific Co.) were pulled on a vertical puller (P-87 Flaming/Brown micropipette puller, Sutter Instrument Co.), graduated, and placed on a microinjector (Nanoject II Auto-Nanoliter Injector, Drummond Scientific Co.). 50 nl of nuclease-free water alone (control oocytes) or 50 nl of 0.6 μg μl^−1 RNA were injected under stereomicroscopic control. Injected oocytes were incubated for 46–72 h at 18 °C with twice-daily buffer changes before usage in experiments.
Drug uptake assays were performed as described previously[21],[22],[24],[34]. […] The direction of radio-labeled drug transport is here from the mostly acidic extracellular solution (pH 4.5 or 6.0, as indicated) into the oocyte cytosol (pH ∼ 7.2), which corresponds to the efflux of drug from the acidic digestive vacuole (pH 5.2) into the parasite cytoplasm (pH 7.2). The topology of PfCRT in the oolemma is such that both the N- and C-terminus face the extracellular milieu[3],[22]. In the parasite, the N- and C-terminus face the lumen of the digestive vacuole. […] For determination of the amount of drug uptake for each oocyte, the reaction medium was removed and the oocytes were washed three times with 2 ml of ice-cold ND96 buffer. Each oocyte was individually transferred to a scintillation vial containing 5% sodium dodecyl sulfate (200 μl) for lysis. […] Oocytes that were injected with water instead of RNA were analyzed in parallel, representing the uptake of a drug by diffusion and/or endogenous permeation pathways. The resulting value represents the “background“ level of drug accumulation in oocytes (in-depth discussion in[22]). The specific PfCRT-mediated uptake was determined by subtracting the corresponding background value measured in water-injected oocytes from that of PfCRT-expressing oocytes. In all cases, at least three separate experiments were performed on oocytes from different frogs (biological replicate), and for each condition in an experiment, measurements were made from 10 oocytes per treatment. For pH 5.5, 6.0, and 6.5, ND96 was buffered with 5 mM MES/Tris base. For pH 4.5, 5 mM Homo-Pipes was used as a buffer and 5 mM HEPES for uptake at pH 7.0.

Sequence of PfCRT^Dd2 (Q9N623 whole entry A220S/I356T/K76T/M74I/N326S/N75E/Q271E/R371I): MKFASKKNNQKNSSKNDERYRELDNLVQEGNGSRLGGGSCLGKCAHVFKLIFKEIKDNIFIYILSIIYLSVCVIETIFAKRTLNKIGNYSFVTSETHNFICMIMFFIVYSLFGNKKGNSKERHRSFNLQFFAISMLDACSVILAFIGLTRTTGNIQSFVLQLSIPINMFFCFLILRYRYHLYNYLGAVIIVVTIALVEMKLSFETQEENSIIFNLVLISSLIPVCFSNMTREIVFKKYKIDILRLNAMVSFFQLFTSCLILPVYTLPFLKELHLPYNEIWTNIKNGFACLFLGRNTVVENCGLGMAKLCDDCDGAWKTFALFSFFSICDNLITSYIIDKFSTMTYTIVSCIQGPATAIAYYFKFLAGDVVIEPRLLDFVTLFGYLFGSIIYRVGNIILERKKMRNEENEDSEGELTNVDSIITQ

Compound: CCN(CC)CCCC(C)Nc1ccnc2cc(Cl)ccc12 (stereo not shown) [CQ, chloroquine]
- PfCRTDd2 transport activity 10 µM CQ pH 4.5 (10 µM CQ, pH 4.5, individual replicates (Fig 4a)): 0.37 pmol oocyte-1 h-1 and 0.31 pmol oocyte-1 h-1 and 0.76 pmol oocyte-1 h-1 and 0.49 pmol oocyte-1 h-1
- PfCRTDd2 transport activity (10 µM CQ, pH 5.0, 60 min): 0.54 pmol oocyte-1 h-1
- PfCRTDd2 transport activity 10 µM CQ pH 5.0 (10 µM CQ, pH 5.0, individual replicates (Fig 4a)): 0.58 pmol oocyte-1 h-1 and 0.59 pmol oocyte-1 h-1 and 0.45 pmol oocyte-1 h-1
- PfCRTDd2 transport activity (10 µM CQ, pH 5.5, 60 min): 0.69 pmol oocyte-1 h-1
- PfCRTDd2 transport activity 10 µM CQ pH 5.5 (10 µM CQ, pH 5.5, individual replicates (Fig 4a)): 0.67 pmol oocyte-1 h-1 and 0.82 pmol oocyte-1 h-1 and 0.59 pmol oocyte-1 h-1 and 0.68 pmol oocyte-1 h-1
- PfCRTDd2 transport activity (10 µM CQ, pH 6.0, 60 min): 0.94 pmol oocyte-1 h-1 and 0.95 pmol oocyte-1 h-1 and 0.80 pmol oocyte-1 h-1 and 1.08 pmol oocyte-1 h-1
- PfCRTDd2 transport activity 10 µM CQ pH 6.0 (10 µM CQ, pH 6.0, individual replicates (Fig 4a)): 0.95 pmol oocyte-1 h-1 and 0.80 pmol oocyte-1 h-1 and 1.08 pmol oocyte-1 h-1
- PfCRTDd2-mediated CQ transport activity (10 µM CQ, time 0 min): 0.00 pmol oocyte-1
- PfCRTDd2-mediated CQ transport activity (10 µM CQ, time 30 min): 0.73 pmol oocyte-1
- PfCRTDd2-mediated CQ transport activity (10 µM CQ, time 60 min): 1.10 pmol oocyte-1
- PfCRTDd2-mediated CQ transport activity (10 µM CQ, time 90 min): 2.55 pmol oocyte-1
- v-1 pH 4.5 (10 µM CQ): 2.08 (pmol oocyte-1 h-1)-1
- v-1 pH 5.0 (10 µM CQ): 1.85 (pmol oocyte-1 h-1)-1
- v-1 pH 5.5 (10 µM CQ): 1.45 (pmol oocyte-1 h-1)-1
- v-1 pH 6.0 (10 µM CQ): 1.06 (pmol oocyte-1 h-1)-1
- PfCRTDd2 transport activity 50 µM CQ pH 4.5 (50 µM CQ, pH 4.5, individual replicates (Fig 4a)): 0.97 pmol oocyte-1 h-1 and 2.03 pmol oocyte-1 h-1 and 1.14 pmol oocyte-1 h-1 and 1.28 pmol oocyte-1 h-1
- PfCRTDd2 transport activity 50 µM CQ pH 5.0 (50 µM CQ, pH 5.0, individual replicates (Fig 4a)): 1.93 pmol oocyte-1 h-1 and 2.00 pmol oocyte-1 h-1 and 3.15 pmol oocyte-1 h-1 and 1.59 pmol oocyte-1 h-1 and 2.59 pmol oocyte-1 h-1 and 2.54 pmol oocyte-1 h-1 and 1.86 pmol oocyte-1 h-1 and 2.77 pmol oocyte-1 h-1 and 2.58 pmol oocyte-1 h-1 and 3.10 pmol oocyte-1 h-1
- PfCRTDd2 transport activity 50 µM CQ pH 5.5 (50 µM CQ, pH 5.5, individual replicates (Fig 4a)): 2.14 pmol oocyte-1 h-1 and 3.86 pmol oocyte-1 h-1 and 4.54 pmol oocyte-1 h-1 and 3.39 pmol oocyte-1 h-1 and 3.66 pmol oocyte-1 h-1 and 1.74 pmol oocyte-1 h-1 and 6.45 pmol oocyte-1 h-1 and 4.72 pmol oocyte-1 h-1 and 2.44 pmol oocyte-1 h-1 and 3.17 pmol oocyte-1 h-1 and 4.57 pmol oocyte-1 h-1 and 4.41 pmol oocyte-1 h-1 and 3.78 pmol oocyte-1 h-1
- PfCRTDd2 transport activity 50 µM CQ pH 6.0 (50 µM CQ, pH 6.0, individual replicates (Fig 4a)): 4.84 pmol oocyte-1 h-1 and 4.32 pmol oocyte-1 h-1 and 4.63 pmol oocyte-1 h-1
- PfCRTDd2-mediated CQ transport activity (50 µM CQ, time 0 min): 0.00 pmol oocyte-1
- PfCRTDd2-mediated CQ transport activity (50 µM CQ, time 30 min): 3.63 pmol oocyte-1
- PfCRTDd2-mediated CQ transport activity (50 µM CQ, time 60 min): 5.55 pmol oocyte-1
- PfCRTDd2-mediated CQ transport activity (50 µM CQ, time 90 min): 7.51 pmol oocyte-1
- v-1 pH 4.5 (50 µM CQ): 0.52 (pmol oocyte-1 h-1)-1
- v-1 pH 5.0 (50 µM CQ): 0.43 (pmol oocyte-1 h-1)-1
- v-1 pH 5.5 (50 µM CQ): 0.27 (pmol oocyte-1 h-1)-1
- v-1 pH 6.0 (50 µM CQ): 0.22 (pmol oocyte-1 h-1)-1
- PfCRTDd2 transport activity (100 µM CQ, pH 4.5, 60 min): 5.17 pmol oocyte-1 h-1 and 4.60 pmol oocyte-1 h-1 and 5.99 pmol oocyte-1 h-1 and 5.32 pmol oocyte-1 h-1 and 4.77 pmol oocyte-1 h-1
- PfCRTDd2 transport activity 100 µM CQ pH 4.5 (100 µM CQ, pH 4.5, individual replicates (Fig 4a)): 4.60 pmol oocyte-1 h-1 and 5.99 pmol oocyte-1 h-1 and 5.32 pmol oocyte-1 h-1 and 4.77 pmol oocyte-1 h-1
- PfCRTDd2 transport activity (100 µM CQ, pH 5.0, 60 min): 5.48 pmol oocyte-1 h-1
- PfCRTDd2 transport activity 100 µM CQ pH 5.0 (100 µM CQ, pH 5.0, individual replicates (Fig 4a)): 4.33 pmol oocyte-1 h-1 and 6.22 pmol oocyte-1 h-1 and 5.90 pmol oocyte-1 h-1
- PfCRTDd2 transport activity (100 µM CQ, pH 5.5, 60 min): 7.61 pmol oocyte-1 h-1
- PfCRTDd2 transport activity 100 µM CQ pH 5.5 (100 µM CQ, pH 5.5, individual replicates (Fig 4a)): 6.37 pmol oocyte-1 h-1 and 9.40 pmol oocyte-1 h-1 and 7.07 pmol oocyte-1 h-1
- PfCRTDd2 transport activity (100 µM CQ, pH 6.0, 60 min): 9.42 pmol oocyte-1 h-1 and 10.41 pmol oocyte-1 h-1 and 9.48 pmol oocyte-1 h-1 and 8.36 pmol oocyte-1 h-1
- PfCRTDd2 transport activity 100 µM CQ pH 6.0 (100 µM CQ, pH 6.0, individual replicates (Fig 4a)): 10.41 pmol oocyte-1 h-1 and 9.48 pmol oocyte-1 h-1 and 8.36 pmol oocyte-1 h-1
- PfCRTDd2-mediated CQ transport activity (100 µM CQ, time 0 min): 0.00 pmol oocyte-1
- PfCRTDd2-mediated CQ transport activity (100 µM CQ, time 30 min): 5.73 pmol oocyte-1
- PfCRTDd2-mediated CQ transport activity (100 µM CQ, time 60 min): 8.29 pmol oocyte-1
- PfCRTDd2-mediated CQ transport activity (100 µM CQ, time 90 min): 9.71 pmol oocyte-1
- v-1 pH 4.5 (100 µM CQ): 0.19 (pmol oocyte-1 h-1)-1
- v-1 pH 5.0 (100 µM CQ): 0.18 (pmol oocyte-1 h-1)-1
- v-1 pH 5.5 (100 µM CQ): 0.13 (pmol oocyte-1 h-1)-1
- v-1 pH 6.0 (100 µM CQ): 0.11 (pmol oocyte-1 h-1)-1
- PfCRTDd2 transport activity (200 µM CQ, pH 4.5, 60 min): 7.21 pmol oocyte-1 h-1 and 7.32 pmol oocyte-1 h-1 and 8.24 pmol oocyte-1 h-1 and 6.30 pmol oocyte-1 h-1 and 7.78 pmol oocyte-1 h-1 and 6.41 pmol oocyte-1 h-1
- PfCRTDd2 transport activity 200 µM CQ pH 4.5 (200 µM CQ, pH 4.5, individual replicates (Fig 4a)): 7.32 pmol oocyte-1 h-1 and 8.24 pmol oocyte-1 h-1 and 6.30 pmol oocyte-1 h-1 and 7.78 pmol oocyte-1 h-1 and 6.41 pmol oocyte-1 h-1
- PfCRTDd2 transport activity (200 µM CQ, pH 5.0, 60 min): 9.98 pmol oocyte-1 h-1
- PfCRTDd2 transport activity 200 µM CQ pH 5.0 (200 µM CQ, pH 5.0, individual replicates (Fig 4a)): 9.29 pmol oocyte-1 h-1 and 10.18 pmol oocyte-1 h-1 and 10.48 pmol oocyte-1 h-1
- PfCRTDd2 transport activity (200 µM CQ, pH 5.5, 60 min): 10.75 pmol oocyte-1 h-1
- PfCRTDd2 transport activity 200 µM CQ pH 5.5 (200 µM CQ, pH 5.5, individual replicates (Fig 4a)): 11.07 pmol oocyte-1 h-1 and 10.25 pmol oocyte-1 h-1 and 11.13 pmol oocyte-1 h-1 and 10.55 pmol oocyte-1 h-1
- PfCRTDd2 transport activity (200 µM CQ, pH 6.0, 60 min): 13.53 pmol oocyte-1 h-1 and 12.77 pmol oocyte-1 h-1 and 14.22 pmol oocyte-1 h-1 and 13.59 pmol oocyte-1 h-1
- PfCRTDd2 transport activity 200 µM CQ pH 6.0 (200 µM CQ, pH 6.0, individual replicates (Fig 4a)): 12.77 pmol oocyte-1 h-1 and 14.22 pmol oocyte-1 h-1 and 13.59 pmol oocyte-1 h-1
- PfCRTDd2-mediated CQ transport activity (200 µM CQ, time 0 min): 0.00 pmol oocyte-1
- PfCRTDd2-mediated CQ transport activity (200 µM CQ, time 30 min): 9.39 pmol oocyte-1
- PfCRTDd2-mediated CQ transport activity (200 µM CQ, time 60 min): 15.25 pmol oocyte-1
- PfCRTDd2-mediated CQ transport activity (200 µM CQ, time 90 min): 18.81 pmol oocyte-1
- v-1 pH 4.5 (200 µM CQ): 0.14 (pmol oocyte-1 h-1)-1
- v-1 pH 5.0 (200 µM CQ): 0.10 (pmol oocyte-1 h-1)-1
- v-1 pH 5.5 (200 µM CQ): 0.09 (pmol oocyte-1 h-1)-1
- v-1 pH 6.0 (200 µM CQ): 0.0739 (pmol oocyte-1 h-1)-1
- PfCRTDd2 transport activity (300 µM CQ, pH 4.5, 60 min): 8.79 pmol oocyte-1 h-1 and 8.53 pmol oocyte-1 h-1 and 10.77 pmol oocyte-1 h-1 and 6.50 pmol oocyte-1 h-1 and 9.34 pmol oocyte-1 h-1
- PfCRTDd2 transport activity 300 µM CQ pH 4.5 (300 µM CQ, pH 4.5, individual replicates (Fig 4a)): 8.53 pmol oocyte-1 h-1 and 10.77 pmol oocyte-1 h-1 and 6.50 pmol oocyte-1 h-1 and 9.34 pmol oocyte-1 h-1
- PfCRTDd2 transport activity (300 µM CQ, pH 5.0, 60 min): 10.68 pmol oocyte-1 h-1
- PfCRTDd2 transport activity 300 µM CQ pH 5.0 (300 µM CQ, pH 5.0, individual replicates (Fig 4a)): 10.67 pmol oocyte-1 h-1 and 9.04 pmol oocyte-1 h-1 and 12.33 pmol oocyte-1 h-1
- PfCRTDd2 transport activity (300 µM CQ, pH 5.5, 60 min): 12.81 pmol oocyte-1 h-1
- PfCRTDd2 transport activity 300 µM CQ pH 5.5 (300 µM CQ, pH 5.5, individual replicates (Fig 4a)): 13.73 pmol oocyte-1 h-1 and 12.01 pmol oocyte-1 h-1 and 12.69 pmol oocyte-1 h-1
- PfCRTDd2 transport activity (300 µM CQ, pH 6.0, 60 min): 15.42 pmol oocyte-1 h-1 and 15.31 pmol oocyte-1 h-1 and 16.86 pmol oocyte-1 h-1 and 14.10 pmol oocyte-1 h-1
- PfCRTDd2 transport activity 300 µM CQ pH 6.0 (300 µM CQ, pH 6.0, individual replicates (Fig 4a)): 15.31 pmol oocyte-1 h-1 and 16.86 pmol oocyte-1 h-1 and 14.10 pmol oocyte-1 h-1
- PfCRTDd2-mediated CQ transport activity (300 µM CQ, time 0 min): 0.00 pmol oocyte-1
- PfCRTDd2-mediated CQ transport activity (300 µM CQ, time 30 min): 9.78 pmol oocyte-1
- PfCRTDd2-mediated CQ transport activity (300 µM CQ, time 60 min): 14.63 pmol oocyte-1
